Measurements taken from patent US11938121B2, “Treatment of infections and biofilm formation using a cellulose synthase inhibitor” (Purdue Research Foundation, priority 2020, dated 2024).
Like-named read-outs stand apart in the source and are kept apart here.

How the values were obtained:
[1] = target: T1, GFP-CESA6c (central cytosolic domain of AtCESA6) (Arabidopsis thaliana, UniProt Q94JQ6); experiment: MST assay with GFP-CESA6c; type: binding; conditions: for interaction with CESA6c: 100 nM GFP-CESA6c
T1 construct: made in house; host or cells: E. coli
Source text: To obtain the central cytosolic domain of AtCESA6 for the MST assay, we inserted the GFP coding sequence into the SacI and PstI restriction enzyme sites of the pRSF-Duet-1 vector (Huang et al., 2020). The GFP coding sequence was amplified from the pUBN-GFP-DEST vector. The sequence encoding the central cytosolic domain of CESA6 (CESA6c) was amplified from Col-0 cDNA and fused with GFP at the C-terminus. CESA6c construct was used as a template for creating CESA6c^P595S construct by site-directed mutagenesis. Protein purification was performed as previously described (Huang et al., 2020).
MST assays were carried out using a Monolith NT.115 (NanoTemper) machine at the Chemical Genomics Facility at Purdue University. […] The ES20-1 was dissolved in DMSO, and the final concentration of DMSO was 5% (vol/vol). MST standard capillaries were used to load the samples into the MST instrument. Triplicate reactions were performed for each test. The MST data were processed using MO. Affinity Analysis Version 2.3 software.

[2] = target: T2, GFP-CESA6c: GFP-tagged central cytosolic domain of AtCESA6 (cellulose synthase, CESA6) with a His-SUMO tag (Arabidopsis thaliana, UniProt Q94JQ6); experiment: Microscale thermophoresis (MST) binding to purified GFP-tagged CESA6c (wild-type); conditions: read-out: Kd, thermophoresis binding curve, GFP-CESA6c
T2 construct: His-SUMO; made in house; host or cells: E. coli
T2 sequence (Q94JQ6 322-868 limits assumed): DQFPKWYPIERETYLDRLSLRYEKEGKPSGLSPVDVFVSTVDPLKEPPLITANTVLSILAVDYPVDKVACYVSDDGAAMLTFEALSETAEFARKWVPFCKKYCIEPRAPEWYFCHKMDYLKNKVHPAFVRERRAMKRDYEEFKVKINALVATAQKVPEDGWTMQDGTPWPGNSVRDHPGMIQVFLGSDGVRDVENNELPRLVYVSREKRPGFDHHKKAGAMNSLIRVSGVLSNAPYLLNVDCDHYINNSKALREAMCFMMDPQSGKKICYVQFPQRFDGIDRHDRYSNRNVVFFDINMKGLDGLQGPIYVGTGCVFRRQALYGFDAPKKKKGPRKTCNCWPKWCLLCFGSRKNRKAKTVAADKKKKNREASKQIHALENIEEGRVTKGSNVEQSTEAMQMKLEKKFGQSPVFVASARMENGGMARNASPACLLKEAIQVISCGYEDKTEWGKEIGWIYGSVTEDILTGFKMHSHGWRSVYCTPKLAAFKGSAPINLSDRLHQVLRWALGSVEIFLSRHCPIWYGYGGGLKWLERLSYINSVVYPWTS
Source text: FIGS. 3A-3Q. […] FIG. 3A to FIG. 3G. […] FIG. 3A. Representative 5-day-old dark-grown Arabidopsis Col-0 seedlings grown on growth medium supplemented with different concentrations of ES20 or ES20-1. Scale bar: 1 cm. FIG. 3B. Quantification of hypocotyl length of 5-day-old dark-grown Arabidopsis Col-0 seedlings described in FIG. 3A. Data represent mean±SD (n=12 seedlings). FIG. 3C. Quantification of crystalline cellulose content in the hypocotyl cell walls of 7-day-old dark-grown Col-0 seedlings grown on growth medium supplemented with DMSO (0.1%), 1 μM ES20, or 1 μM ES20-1. Data represent mean±SD (n=3 biological replicates). FIG. 3D and FIG. 3E. […] FIG. 3D. Representative image of 6-day-old rice seedlings grown in sterile water supplemented with DMSO (0.1%), 20 μM ES20, or 20 μM ES20-1. Scale bar: 1 cm. FIG. 3E. Quantification of root length of rice seedlings as described in FIG. 3D. Data represent mean±SD (n=10 seedlings). FIG. 3F and FIG. 3G. […] FIG. 3F. Representative image of 6-day-old maize seedlings grown in sterile water supplemented with DMSO (0.1%), 20 μM ES20, or 20 μM ES20-1. Scale bar: 1 cm. FIG. 3G. Quantification of root length of maize seedlings as described in FIG. 3F. Data represent mean±SD (n=12 seedlings). […] FIG. 3H. Representative immunoblot from a DARTS assay of ES20-1 and YFP-AtCESA6. FIG. 3I. Quantitative analysis of the band intensity of YFP-AtCESA6 and SEC12 in ES20-1-treated samples divided by that of DMSO-treated samples in the DARTS assay described in FIG. 3H. Data represent mean±SD (n=6 biological replicates). FIGS. 3J-3N. […] FIG. 3J. Coomassie blue staining of purified GFP-tagged CESA6c with a His-SUMO tag (lane 2). FIGS. 3K, 3L, 3M, 3N. […] FIG. 3O. Coomassie blue staining of purified GFP-tagged CESA6c^P595S with a His-SUMO tag (lane 2). FIG. 3P and FIG. 3Q. […] Statistically significant differences in FIG. 3B were determined using one-way ANOVA followed by Tukey's multiple comparisons test. Lower-case letters represent ANOVA results for plants grown on medium with 0.1% DMSO, different concentrations of ES20 or ES20-1. […]

[3] = tested on: AtCESA6 (cesa6 alleles es20r1-es20r15); experiment: Root growth of EMS-induced cesa6 mutants es20r1-es20r15 on ES20 analogs; type: in vivo, Arabidopsis thaliana; conditions: compared with wild-type/control plants
Source text: A subset of active ES20 analogs likely target the catalytic domain of AtCESA6. […] Since ES20 and the nine active ES20 analogs share highly similar structures, we reasoned whether these active analogs target AtCESA6 as well. We therefore examined the growth of es20r1-es20r15 plants in the presence of nine active ES20 analogs compared to wild-type plants.
(§1) To test the inhibitory effects of different chemicals on plant growth, wild-type Arabidopsis Col-0 plants were used. The seeds of plants used for growth assays or live cell imaging were sequentially sterilized with 50% bleach and 75% ethanol. […] To quantify the inhibitory effects of different ES20 active analogs on the root growth of Arabidopsis wildtype, EMS mutants, and transgenic plants expressing mutated AtCESA6 in prc1-1 background, sterilized Col-0, mutants, and transgenic plants seeds were sown on gridded Petri plates containing ½-strength MS medium supplemented with different concentrations of ES20 analogs. […] The plates were scanned using an Epson Perfection V550 scanner after 7 days of growth, and the root lengths of plants were quantified using ImageJ software. […] The Petri dishes were scanned, and hypocotyl length was measured using ImageJ. Transgenic plants expressing fluorescence-tagged PIN2, PIP2a, HDEL, VHA-a1, and GOT1p were as reported previously (Xu and Scheres, Plant Cell, 2005, 17, 525-536).

[4] = tested on: AtCESA6 carrying missense mutations in prc1-1; experiment: Root growth of transgenic plants expressing mutated AtCESA6 in prc1-1; type: in vivo, Arabidopsis thaliana; conditions: D562N, D564N, D785N, Q823E, R826A, W827A in prc1-1
Source text: We then examined whether transgenic plants expressing AtCESA6 with predicted missense mutations at the catalytic site in prc1-1 background would have altered sensitivity to active ES20 analogs. […] However, the responses of two transgenic lines expressing AtCESA6 carrying missense mutations outside of the catalytic site (L365F and D395N) to nine active ES20 analogs were similar to those of wild-type plants (FIG. 2B).
as §1, with “Transgenic plants expressing fluorescence-tagged PIN2, PIP2a, HDEL, VHA-a1, and GOT1p were as reported previously (Xu and Scheres, Plant Cell, 2005, 17, 525-536).” left out

[5] = target: T3, GFP-CESA6c^P595S: GFP-tagged central cytoplasmic domain of AtCESA6 (cellulose synthase, CESA6) carrying missense mutation P595S, with a His-SUMO tag (Arabidopsis thaliana, UniProt Q94JQ6, P595S); experiment: Microscale thermophoresis (MST) binding to purified GFP-tagged CESA6c^P595S (missense mutant)
T3 construct: We purified AtCESA6 central cytoplasmic domain carrying missense mutation P595S (CESA6c^P595S); His-SUMO; made in house; host or cells: E. coli
Source text: FIGS. 3A-3Q. […] FIG. 3A to FIG. 3G. […] FIG. 3A. Representative 5-day-old dark-grown Arabidopsis Col-0 seedlings grown on growth medium supplemented with different concentrations of ES20 or ES20-1. Scale bar: 1 cm. FIG. 3B. Quantification of hypocotyl length of 5-day-old dark-grown Arabidopsis Col-0 seedlings described in FIG. 3A. Data represent mean±SD (n=12 seedlings). FIG. 3C. Quantification of crystalline cellulose content in the hypocotyl cell walls of 7-day-old dark-grown Col-0 seedlings grown on growth medium supplemented with DMSO (0.1%), 1 μM ES20, or 1 μM ES20-1. Data represent mean±SD (n=3 biological replicates). FIG. 3D and FIG. 3E. […] FIG. 3D. Representative image of 6-day-old rice seedlings grown in sterile water supplemented with DMSO (0.1%), 20 μM ES20, or 20 μM ES20-1. Scale bar: 1 cm. FIG. 3E. Quantification of root length of rice seedlings as described in FIG. 3D. Data represent mean±SD (n=10 seedlings). FIG. 3F and FIG. 3G. […] FIG. 3F. […] Quantification of root length of maize seedlings as described in FIG. 3F. […] Quantitative analysis of the band intensity of YFP-AtCESA6 and SEC12 in ES20-1-treated samples divided by that of DMSO-treated samples in the DARTS assay described in FIG. 3H. […] Statistically significant differences in FIG. 3B were determined using one-way ANOVA followed by Tukey's multiple comparisons test. […]

| SMILES | interaction with CESA6c [1] | Kd ([2]; FIG. 3N, GFP-CESA6c purified from E. coli, pH 7.5, 10 mM MgCl2, 0.05% Tween 20, triplicate) [µM] | sensitivity of es20r1-es20r15 mutants in growth [3] | sensitivity of transgenic lines with AtCESA6 catalytic site mutations [4] | relative binding affinity to CESA6c ([1]; MST) | Kd ([2]; FIGS. 3K-3M, 100 nM GFP-CESA6c purified from E. coli, pH 7.5, 10 mM MgCl2, 0.05% Tween 20, 5% DMSO, triplicate) [µM] | Kd [5] [µM] |
| --- | --- | --- | --- | --- | --- | --- | --- |
| CC1(C)S[C@@H]2[C@H](NC(=O)[C@H](N)c3ccccc3)C(=O)N2[C@H]1C(=O)O [ampicillin, reference compound] | did not interact | – | – | – | – | – | – |
| Cc1cccnc1NC(=S)NC(=O)c1cccc([N+](=O)[O-])c1C [ES20-9] | also interacts | 5.1 ± 4.8 | 14 out of 15 mutants except es20r13 show reduced sensitivity | Reduced sensitivity | slightly lower than ES20-1 | – | – |
| COc1ccc(C(=O)NC(=S)NNC(=O)c2ccccc2C)cc1 [ES20] | – | – | – | – | – | 9.7 ± 3.3 | 24.5 ± 26.9 |
